We go through 29 molecules from patent US20260035403A1, “NUCLEOSIDE LINE-1 INHIBITORS” (TRANSPOSON THERAPEUTICS, INC., priority 2022, published 2026).

Structures are written as SMILES. A value given as a limit tells only on which side of the number the result lay.

The first experiment has as its system human LINE-1. Nature of the experiment: Human LINE-1 retrotransposition assay (HeLa cell-based dual-luciferase reporter). As to conditions: Homo sapiens, HeLa, 72 h, Human LINE-1 activity inhibition; HeLa cells, reporter plasmid pYX017, Firefly/Renilla, 72 h incubation. On the procedure:
Representative Compounds of the Disclosure were tested for inhibition of retrotransposition activity of human LINE-1 in HeLa cells according to the following procedure.
HeLa cervical cancer cells were cultivated at 37° C. in a humidified 5% CO2 incubator in Dulbecco's Modified Eagle's Medium (DMEM)—high glucose, with 4500 mg/L glucose, L-glutamine, sodium pyruvate and sodium bicarbonate (Sigma), supplemented with 10% of heat inactivated fetal bovine serum (Thermo Fisher).
Assays were performed using reporter plasmid pYX017 as described (Xie, et al., 2011) with several modifications. The reporter assay was performed in 96-well white optical bottom plates. HeLa cells were seeded in wells 24 h prior to transfection and compound treatment so that cells were approximately 30% confluent on the day of transfection. Different cell plating densities were tested and a density of 2×10^3 cells was determined to be optimal.
Compounds were resuspended in DMSO. Serial dilutions (1:3) were prepared in DMSO. Medium containing different concentrations of the compounds were prepared by adding 2 μl of the compound dilution to 1 ml of the culture medium. The final concentration of DMSO in the medium was 0.2%.
FuGENE® HD transfection reagent (Promega, E2311, Lot 382574 and Lot 397842) was used to transfect the plasmids into the cells. The transfection reagent: DNA mixture was prepared in OpiMEM (Thermo Fisher) according to manufacturer's instructions. Different ratios of transfection reagent to DNA were tested and a ratio of 3:1 was determined to be optimal. Culture medium was removed from the cells and discarded. The transfection reagent: DNA mixture (5 μl) was mixed with the compound containing medium (100 μl/well) and this was added onto the cells of each well. Cells were incubated at 37° C./5% CO2 for different incubation time. A 72 h incubation time was determined to be optimal.
Luciferase reporter activity was quantified with the Dual-Luciferase® Reporter Assay System (Promega) according to manufacturer's instructions for multiwell plates except that cells were lysed directly on the multiwell plate with 30 μl of the passive lysis buffer (PLB) for 20 min at room temperature, with gentle shaking to ensure complete cell lysis.
Firefly and Renilla luciferase signals were measured using a SpectraMax i3× Multi-Mode Microplate Reader. Integration times of 100 ms and 10 ms were used to measure the Firefly and Renilla signals respectively. Relative L1 activity is calculated as Firefly/Renilla*1000 or Firefly/Renilla*10,000. Dose response inhibition data were fit to a four parameter logistic equation using non-linear regression (using Graphpad Prism 8), to determine IC50 values for each inhibitor.
A general note: Reporter assays use an easily measured gene product as a stand-in for the process of interest.
In the case of `CC[C@]1(CO)O[C@@H](n2cnc3c(O)ncnc32)C[C@@H]1O` [Cpd. No. 1], the midpoint of inhibition, the IC50, lay at 0.062 µM.
For `CC[C@]1(CO)O[C@@H](n2cc(Br)c(=O)[nH]c2=O)C[C@@H]1O` [Cpd. No. 2, 5-bromo-1-((2R,4S,5R)-5-ethyl-4-hydroxy-5-(hydroxymethyl)tetrahydrofuran-2-yl)-4-hydroxypyrimidin-2(1H)-one], inhibition was half-maximal at 6.9 µM (IC50).
On the same count and under the same terms, for `C#C[C@]1(CO)O[C@H](n2nc(C)c3c(N)nc(F)nc32)C[C@@H]1O` [Cpd. No. 3, (2R,3S,5S)-5-(4-amino-6-fluoro-3-methyl-1H-pyrazolo[3,4-d]pyrimidin-1-yl)-2-ethynyl-2-(hydroxymethyl)tetrahydrofuran-3-ol] the value was 0.041 µM; for `C=C[C@]1(CO)O[C@@H](n2cnc3c(NC4CC4)nc(N)nc32)C[C@@H]1O` [Cpd. No. 4, (2R,3S,5R)-5-(2-amino-6-(cyclopropylamino)-9H-purin-9-yl)-2-(hydroxymethyl)-2-vinyltetrahydrofuran-3-ol], 0.401 µM; for `C=C[C@]1(CO)O[C@@H](n2cnc3c(NC4CC4)nc(F)nc32)C[C@@H]1O` [Cpd. No. 5, (2R,3S,5R)-5-(6-(cyclopropylamino)-2-fluoro-9H-purin-9-yl)-2-(hydroxymethyl)-2-vinyltetrahydrofuran-3-ol], 0.469 µM.
Consider `C=C[C@]1(CO)O[C@@H](n2cc(OC)c(=O)[nH]c2=O)C[C@@H]1O` [Cpd. No. 6, 1-((2R,4S,5R)-4-hydroxy-5-(hydroxymethyl)-5-vinyltetrahydrofuran-2-yl)-5-methoxypyrimidine-2,4(1H,3H)-dione], for which the IC50 (in general, the concentration at which inhibition is half-maximal) was greater than 50 µM.
On the same count and under the same terms, next, `C=C[C@]1(CO)O[C@@H](n2cc(F)c(N)nc2=O)C[C@@H]1O` [Cpd. No. 8, 4-amino-5-fluoro-1-((2R,4S,5R)-4-hydroxy-5-(hydroxymethyl)-5-vinyltetrahydrofuran-2-yl)pyrimidin-2(1H)-one]: 0.009 µM; `C=C[C@]1(CO)O[C@@H](n2cnc3c(O)nc(N)nc32)C[C@@H]1O` [Cpd. No. 9, 2-amino-9-((2R,4S,5R)-4-hydroxy-5-(hydroxymethyl)-5-vinyltetrahydrofuran-2-yl)-1H-purin-6(9H)-one]: 0.013 µM.
On to `C#C[C@]1(CO)OC(n2cnc(C(N)=O)n2)C[C@@H]1O` (stereo partly drawn) [Cpd. No. 11, 1-((4S,5R)-5-ethynyl-4-hydroxy-5-(hydroxymethyl)tetrahydrofuran-2-yl)-1H-1,2,4-triazole-3-carboxamide], for which the IC50 was greater than 50 µM.
In the case of `C=C[C@]1(CO)O[C@@H](n2cc(F)c(=O)[nH]c2=O)C[C@@H]1O` [Cpd. No. 17, 5-fluoro-1-((2R,4S,5R)-4-hydroxy-5-(hydroxymethyl)-5-vinyltetrahydrofuran-2-yl)pyrimidine-2,4(1H,3H)-dione], the concentration for half-maximal inhibition (IC50) turned out to be 2.35 µM.
As to `CC[C@]1(CO)O[C@@H](n2cc(F)c(=O)[nH]c2=O)C[C@@H]1O` [Cpd. No. 18, 1-((2R,4S,5R)-5-ethyl-4-hydroxy-5-(hydroxymethyl)tetrahydrofuran-2-yl)-5-fluoropyrimidine-2,4(1H,3H)-dione], it took 3.75 µM to reach half-maximal inhibition (IC50).
Still for that read-out and setting: for `CC[C@]1(CO)O[C@H](n2ccc(=O)[nH]c2=O)C[C@@H]1O` [Cpd. No. 20, 1-((2S,4S,5R)-5-ethyl-4-hydroxy-5-(hydroxymethyl)tetrahydrofuran-2-yl)pyrimidine-2,4(1H,3H)-dione] the value was 7.21 µM.
`C=C[C@]1(CO)O[C@@H](n2cc(C)c(=O)[nH]c2=O)C[C@@H]1O` [Cpd. No. 62, 1-((2R,4S,5R)-4-hydroxy-5-(hydroxymethyl)-5-vinyltetrahydrofuran-2-yl)-5-methylpyrimidine-2,4(1H,3H)-dione] yielded an IC50 of 3.67 µM.
Same read-out and setting: next, `C=C[C@]1(CO)O[C@@H](n2cc(Br)c(=O)[nH]c2=O)C[C@@H]1O` [Cpd. No. 64, 5-bromo-1-((2R,4S,5R)-4-hydroxy-5-(hydroxymethyl)-5-vinyltetrahydrofuran-2-yl)pyrimidine-2,4(1H,3H)-dione]: 9.93 µM.
Molecule `CC[C@]1(CO)OC(n2cc(OC)c(=O)[nH]c2=O)C[C@@H]1O` (stereo partly drawn) [Cpd. No. 68, 1-((4S,5R)-5-ethyl-4-hydroxy-5-(hydroxymethyl)tetrahydrofuran-2-yl)-5-methoxypyrimidine-2,4(1H,3H)-dione] gave a 50% inhibitory concentration (IC50) of 0.721 µM. This IC50 is about 14-fold lower than that of the molecule before.
`C=C[C@]1(CO)O[C@@H](n2cc(C#N)c(=O)[nH]c2=O)C[C@@H]1O` [Cpd. No. 69, 1-((2R,4S,5R)-4-hydroxy-5-(hydroxymethyl)-5-vinyltetrahydrofuran-2-yl)-2,4-dioxo-1,2,3,4-tetrahydropyrimidine-5-carbonitrile]: the concentration for half-maximal inhibition (IC50) is 6.2 µM.
For `CC[C@]1(CO)OC(n2cc(Br)c(N)nc2=O)C[C@@H]1O` (stereo partly drawn) [Cpd. No. 70, 4-amino-5-bromo-1-((4S,5R)-5-ethyl-4-hydroxy-5-(hydroxymethyl)tetrahydrofuran-2-yl)pyrimidin-2(1H)-one], inhibition was half-maximal at 0.432 µM (IC50).
In turn, `C#C[C@]1(CO)C=C[C@@H](n2cc(F)c(N)nc2=O)O1` [Cpd. No. 74, 4-amino-1-[(2S,5S)-5-ethynyl-5-(hydroxymethyl)-2H-furan-2-yl]-5-fluoro-pyrimidin-2-one] showed an IC50 greater than 50 µM.
`C#C[C@]1(CO)O[C@@H](n2nc(C)c3c(N)nc(F)nc32)C[C@@H]1O` [Cpd. No. 75, (2R,3S,5R)-5-(4-amino-6-fluoro-3-methyl-1H-pyrazolo[3,4-d]pyrimidin-1-yl)-2-ethynyl-2-(hydroxymethyl)tetrahydrofuran-3-ol] yielded an IC50 greater than 50 µM.
As to `C#C[C@@]1(CO)O[C@H](n2ccc(N)nc2=O)C[C@H]1O` [Cpd. No. 76, 4-amino-1-((2S,4R,5S)-5-ethynyl-4-hydroxy-5-(hydroxymethyl)tetrahydrofuran-2-yl)pyrimidin-2(1H)-one], the half-inhibitory concentration (IC50) was greater than 6.25 µM.
`C#C[C@@]1(CO)O[C@@H](n2ccc(N)nc2=O)C[C@H]1O` [Cpd. No. 77, 4-amino-1-((2R,4R,5S)-5-ethynyl-4-hydroxy-5-(hydroxymethyl)tetrahydrofuran-2-yl)pyrimidin-2(1H)-one] displayed an IC50 greater than 6.25 µM.
In turn, `C#C[C@@]1(CO)O[C@@H](n2cnc3c(=O)[nH]c(N)nc32)C[C@H]1O` [Cpd. No. 79, 2-amino-9-[(2R,4R,5S)-5-ethynyl-4-hydroxy-5-(hydroxymethyl)tetrahydrofuran-2-yl]-1H-purin-6-one] showed a half-maximal inhibitory concentration (IC50) of 17 µM.
For the molecule `C=C[C@]1(CO)O[C@@H](n2cc(Br)c(N)nc2=O)C[C@@H]1O` [Cpd. No. 90, 4-amino-5-bromo-1-((2R,4S,5R)-4-hydroxy-5-(hydroxymethyl)-5-vinyltetrahydrofuran-2-yl)pyrimidin-2(1H)-one], the half-maximal inhibitory concentration (IC50) was 0.658 µM.
The molecule `C=C[C@]1(CO)O[C@@H](n2cnc3c(NC4CC4)ncnc32)C[C@@H]1O` [Cpd. No. 94, (2R,3S,5R)-5-(6-(cyclopropylamino)-9H-purin-9-yl)-2-(hydroxymethyl)-2-vinyltetrahydrofuran-3-ol] registered an IC50 greater than 50 µM.
The molecule `CC[C@]1(CO)O[C@@H](n2cnc3c(NC4CC4)ncnc32)C[C@@H]1O` [Cpd. No. 96, (2R,3S,5R)-5-(6-(cyclopropylamino)-9H-purin-9-yl)-2-ethyl-2-(hydroxymethyl)tetrahydrofuran-3-ol] gave a half-inhibitory concentration (IC50) of 7 µM. That is a single-digit micromolar value.
`CC[C@]1(CO)O[C@@H](n2cnc3c(NC4CC4)nc(N)nc32)C[C@@H]1O` [Cpd. No. 97, (2R,3S,5R)-5-(2-amino-6-(cyclopropylamino)-9H-purin-9-yl)-2-ethyl-2-(hydroxymethyl)tetrahydrofuran-3-ol] showed an IC50 of 0.946 µM.
In the case of `CC[C@]1(CO)O[C@@H](n2cc(C#N)c(=O)[nH]c2=O)C[C@@H]1O` [Cpd. No. 98, 1-((2R,4S,5R)-5-ethyl-4-hydroxy-5-(hydroxymethyl)tetrahydrofuran-2-yl)-4-hydroxy-2-oxo-1,2-dihydropyrimidine-5-carbonitrile], the concentration for half-maximal inhibition (IC50) was greater than 25 µM.
`CC[C@]1(CO)O[C@@H](n2cnc3c(NC4CC4)nc(F)nc32)C[C@@H]1O` [Cpd. No. 99, (2R,3S,5R)-5-(6-(cyclopropylamino)-2-fluoro-9H-purin-9-yl)-2-ethyl-2-(hydroxymethyl)tetrahydrofuran-3-ol] came in with a concentration for half-maximal inhibition (IC50) of 5.53 µM.

Still in this experiment, the particulars now being: Human LINE-1 activity inhibition; HeLa cells, reporter plasmid pYX017, Firefly/Renilla, 72 h incubation.
In turn, `C#C[C@@]1(CO)C=C[C@H](n2cc(F)c(=O)[nH]c2=O)O1` [Cpd. No. 19, 1-((2R,5R)-5-ethynyl-5-(hydroxymethyl)-2,5-dihydrofuran-2-yl)-5-fluoropyrimidine-2,4(1H,3H)-dione] returned an IC50 greater than 50 µM.
